What was measured:
Microsomal stability = type: in vitro ADME, mouse; conditions: 100 μM, NADPH-regenerating system, up to 90 min
Method: Pooled liver microsomes from mice (male) were purchased from XenoTech LLC (Sekisui XenoTech LLC, Kansas City, KS, USA). Incubation of compound 2 was made in the presence of an NADPH-regenerating system (5 mM glucose-6-phosphate, 5 U/mL glucose-6-phosphate dehydrogenase, and 1 mM NADP^+). Compound 2 (100 μM), the NADPH-regenerating system, and 4 mM MgCl2⋅6 H2O in 0.1 M Tris buffer (pH 7.4) were preincubated for 5 min at 37 °C and 750 rpm on a shaker. The incubation mix was split into aliquots (50 μL) and the reaction was started by the addition of mouse liver microsomes. The reaction was quenched at selected time points (0, 10, 20, 30, 60, and 90 min) by adding 100 μL internal standard at a concentration of 50 μM in MeCN. The samples were vortexed for 30 s and centrifuged (19,800 relative centrifugal force/4 °C/15 min). The supernatant was directly used for LC-MS analysis. All incubations were conducted in triplicates and a limit of 1% organic solvent was not exceeded. […]
Detection was performed on a Micromass Quattro micro triple quadrupole mass spectrometer (Waters GmbH, Eschborn, Germany) using electrospray ionization in positive mode. […] The data were analyzed using MassLynx 4.1 (Waters Corporation, Milford, MA, USA)

BRAF = molecular target: T1, BRAF (Homo sapiens, UniProt P15056); assay: DSF thermal shift assay; type: binding; conditions: inhibitor 10 μM, protein 2 μM
T1 construct: purchased in-house DSF (thermal shift) panel per Fedorov et al
Method: (§1) Differences in the melting temperature (ΔTm) were measured as described by Fedorov et al.. Purified proteins were buffered in 25 mM HEPES (pH 7.5), 500 mM NaCl and were assayed in a 384-well plate with a final protein concentration of 2 μM in 10 μL assay volume. Inhibitors were added to a final concentration of 10 μM using an ECHO 550 acoustic dispenser (Labcyte, San José, CA, USA). As a fluorescence probe, SYPRO-Orange (Molecular Probes, Eugene, OR, USA) was added in a 1:5000 dilution. […] Data were analyzed through Boltzmann equation in the Protein Thermal Shift software (Applied Biosystems, Waltham, MA, USA). Samples were measured in technical duplicates.

EPHA5 = molecular target: T2, EPHA5 (Homo sapiens, UniProt P54756); assay: DSF thermal shift assay; type: binding; conditions: inhibitor 10 μM, protein 2 μM
T2 construct: purchased in-house DSF (thermal shift) panel per Fedorov et al; IC50 follow-up at Reaction Biology Corp
Method: as §1

FGFR2 = molecular target: T3, FGFR2 (Homo sapiens, UniProt P21802); assay: DSF thermal shift assay; type: binding; conditions: inhibitor 10 μM, protein 2 μM
T3 construct: purchased in-house DSF (thermal shift) panel per Fedorov et al
Method: as §1

PCTK1 = molecular target: T4, PCTK1 (Homo sapiens, UniProt Q00536); assay: DSF thermal shift assay; type: binding; conditions: inhibitor 10 μM, protein 2 μM
T4 construct: purchased in-house DSF (thermal shift) panel per Fedorov et al; IC50 follow-up at Reaction Biology Corp
Method: as §1

GSG2 = molecular target: T5, GSG2 (Homo sapiens, UniProt Q8TF76); assay: DSF thermal shift assay; type: binding; conditions: inhibitor 10 μM, protein 2 μM
T5 construct: purchased in-house DSF (thermal shift) panel per Fedorov et al
Method: as §1

STK38L = molecular target: T6, STK38L (Homo sapiens, UniProt Q9Y2H1); assay: DSF thermal shift assay; type: binding; conditions: inhibitor 10 μM, protein 2 μM
T6 construct: purchased in-house DSF (thermal shift) panel per Fedorov et al; IC50 follow-up at Reaction Biology Corp
Method: as §1

MELK = molecular target: T7, MELK (Homo sapiens, UniProt Q14680); assay: DSF thermal shift assay; type: binding; conditions: inhibitor 10 μM, protein 2 μM
T7 construct: purchased in-house DSF (thermal shift) panel per Fedorov et al
Method: as §1

MAPK9 = molecular target: T8, MAPK9 (Homo sapiens, UniProt P45984); assay: DSF thermal shift assay; type: binding; conditions: inhibitor 10 μM, protein 2 μM
T8 construct: purchased in-house DSF (thermal shift) panel per Fedorov et al
Method: as §1

BRPF1 = molecular target: T9, BRPF1 (Homo sapiens, UniProt P55201); assay: DSF thermal shift assay; type: binding; conditions: inhibitor 10 μM, protein 2 μM
T9 construct: purchased in-house DSF (thermal shift) panel per Fedorov et al; IC50 follow-up at Reaction Biology Corp
Method: as §1

GSK3B = molecular target: T10, GSK3B (Homo sapiens, UniProt P49841); assay: DSF thermal shift assay; type: binding; conditions: inhibitor 10 μM, protein 2 μM
T10 construct: purchased in-house DSF (thermal shift) panel per Fedorov et al; IC50 follow-up at Reaction Biology Corp
Method: as §1

TLK1 = molecular target: T11, TLK1 (Homo sapiens, UniProt Q9UKI8); assay: DSF thermal shift assay; type: binding; conditions: inhibitor 10 μM, protein 2 μM
T11 construct: purchased in-house DSF (thermal shift) panel per Fedorov et al; IC50 follow-up at Reaction Biology Corp
Method: as §1

EPHA2 = molecular target: T12, EPHA2 (Homo sapiens, UniProt P29317); assay: DSF thermal shift assay; type: binding; conditions: inhibitor 10 μM, protein 2 μM
T12 construct: purchased in-house DSF (thermal shift) panel per Fedorov et al
Method: as §1

STK17 = molecular target: T13, STK17 (Homo sapiens, UniProt Q9UEE5); assay: DSF thermal shift assay; type: binding; conditions: inhibitor 10 μM, protein 2 μM
T13 construct: purchased in-house DSF (thermal shift) panel per Fedorov et al
Method: as §1

BMPR2 = molecular target: T14, BMPR2 (Homo sapiens, UniProt Q13873); assay: DSF thermal shift assay; type: binding; conditions: inhibitor 10 μM, protein 2 μM
T14 construct: purchased in-house DSF (thermal shift) panel per Fedorov et al
Method: as §1

PIM1 = molecular target: T15, PIM1 (Homo sapiens, UniProt P11309); assay: DSF thermal shift assay; type: binding; conditions: inhibitor 10 μM, protein 2 μM
T15 construct: purchased in-house DSF (thermal shift) panel per Fedorov et al
Method: as §1

FGFR3 = molecular target: T16, FGFR3 (Homo sapiens, UniProt P22607); assay: DSF thermal shift assay; type: binding; conditions: inhibitor 10 μM, protein 2 μM
T16 construct: purchased in-house DSF (thermal shift) panel per Fedorov et al
Method: as §1

MAPKAPK2 = molecular target: T17, MAPKAPK2 (Homo sapiens, UniProt P49137); assay: DSF thermal shift assay; type: binding; conditions: inhibitor 10 μM, protein 2 μM
T17 construct: purchased in-house DSF (thermal shift) panel per Fedorov et al; IC50 follow-up at Reaction Biology Corp
Method: as §1

MAP2K4 = molecular target: T18, MAP2K4 (Homo sapiens, UniProt P45985); assay: DSF thermal shift assay; type: binding; conditions: inhibitor 10 μM, protein 2 μM
T18 construct: purchased in-house DSF (thermal shift) panel per Fedorov et al
Method: as §1

FGFR1 = molecular target: T19, FGFR1 (Homo sapiens, UniProt P11362); assay: DSF thermal shift assay; type: binding; conditions: inhibitor 10 μM, protein 2 μM
T19 construct: purchased in-house DSF (thermal shift) panel per Fedorov et al; IC50 follow-up at Reaction Biology Corp
Method: as §1

PAK4 = molecular target: T20, PAK4 (Homo sapiens, UniProt O96013); assay: DSF thermal shift assay; type: binding; conditions: inhibitor 10 μM, protein 2 μM
T20 construct: purchased in-house DSF (thermal shift) panel per Fedorov et al
Method: as §1

BRD4 = molecular target: T21, BRD4 (Homo sapiens, UniProt O60885); assay: DSF thermal shift assay; type: binding; conditions: inhibitor 10 μM, protein 2 μM
T21 construct: purchased in-house DSF (thermal shift) panel per Fedorov et al; IC50 follow-up at Reaction Biology Corp
Method: as §1

AURKB = molecular target: T22, AURKB (Homo sapiens, UniProt Q96GD4); assay: DSF thermal shift assay; type: binding; conditions: inhibitor 10 μM, protein 2 μM
T22 construct: purchased in-house DSF (thermal shift) panel per Fedorov et al
Method: as §1

MST4 = molecular target: T23, MST4 (Homo sapiens, UniProt Q9P289); assay: DSF thermal shift assay; type: binding; conditions: inhibitor 10 μM, protein 2 μM
T23 construct: purchased in-house DSF (thermal shift) panel per Fedorov et al
Method: as §1

ABL1 = molecular target: T24, ABL1 (Homo sapiens, UniProt P00519); assay: DSF thermal shift assay; type: binding; conditions: inhibitor 10 μM, protein 2 μM
T24 construct: purchased in-house DSF (thermal shift) panel per Fedorov et al; IC50 follow-up at Reaction Biology Corp
Method: as §1

DAPK3 = molecular target: T25, DAPK3 (Homo sapiens, UniProt O43293); assay: DSF thermal shift assay; type: binding; conditions: inhibitor 10 μM, protein 2 μM
T25 construct: purchased in-house DSF (thermal shift) panel per Fedorov et al
Method: as §1

CDK2 = molecular target: T26, CDK2 (Homo sapiens, UniProt P24941); assay: DSF thermal shift assay; type: binding; conditions: inhibitor 10 μM, protein 2 μM
T26 construct: purchased in-house DSF (thermal shift) panel per Fedorov et al; IC50 follow-up at Reaction Biology Corp
Method: as §1

MAPK10 = molecular target: T27, MAPK10 (Homo sapiens, UniProt P53779); assay: DSF thermal shift assay; type: binding; conditions: inhibitor 10 μM, protein 2 μM
T27 construct: purchased in-house DSF (thermal shift) panel per Fedorov et al
Method: as §1

T18 sequence (P45985 whole entry): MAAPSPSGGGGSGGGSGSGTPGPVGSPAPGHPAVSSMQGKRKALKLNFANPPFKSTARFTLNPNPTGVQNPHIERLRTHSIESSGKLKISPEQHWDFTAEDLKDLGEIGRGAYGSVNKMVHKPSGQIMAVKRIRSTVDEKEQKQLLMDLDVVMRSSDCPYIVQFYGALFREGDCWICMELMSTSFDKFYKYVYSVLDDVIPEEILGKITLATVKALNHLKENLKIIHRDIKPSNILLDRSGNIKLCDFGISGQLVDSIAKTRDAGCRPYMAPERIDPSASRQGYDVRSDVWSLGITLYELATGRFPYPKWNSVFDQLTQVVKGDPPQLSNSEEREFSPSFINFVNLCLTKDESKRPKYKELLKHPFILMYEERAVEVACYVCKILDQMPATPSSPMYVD
T4 sequence (Q00536 whole entry): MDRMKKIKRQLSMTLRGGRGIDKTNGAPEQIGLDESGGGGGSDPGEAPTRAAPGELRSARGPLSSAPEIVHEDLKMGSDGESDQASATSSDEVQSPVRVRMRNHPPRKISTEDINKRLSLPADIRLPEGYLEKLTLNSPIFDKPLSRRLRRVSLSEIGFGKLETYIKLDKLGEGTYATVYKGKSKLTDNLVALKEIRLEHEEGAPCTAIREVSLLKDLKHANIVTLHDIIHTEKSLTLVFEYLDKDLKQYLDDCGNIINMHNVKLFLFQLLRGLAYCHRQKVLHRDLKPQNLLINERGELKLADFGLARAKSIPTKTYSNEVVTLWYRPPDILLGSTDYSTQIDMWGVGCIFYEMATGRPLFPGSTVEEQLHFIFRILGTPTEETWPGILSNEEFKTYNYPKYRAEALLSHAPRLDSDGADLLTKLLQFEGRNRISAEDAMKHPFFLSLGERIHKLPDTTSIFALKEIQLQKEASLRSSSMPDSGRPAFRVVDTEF
T8 sequence (P45984 whole entry): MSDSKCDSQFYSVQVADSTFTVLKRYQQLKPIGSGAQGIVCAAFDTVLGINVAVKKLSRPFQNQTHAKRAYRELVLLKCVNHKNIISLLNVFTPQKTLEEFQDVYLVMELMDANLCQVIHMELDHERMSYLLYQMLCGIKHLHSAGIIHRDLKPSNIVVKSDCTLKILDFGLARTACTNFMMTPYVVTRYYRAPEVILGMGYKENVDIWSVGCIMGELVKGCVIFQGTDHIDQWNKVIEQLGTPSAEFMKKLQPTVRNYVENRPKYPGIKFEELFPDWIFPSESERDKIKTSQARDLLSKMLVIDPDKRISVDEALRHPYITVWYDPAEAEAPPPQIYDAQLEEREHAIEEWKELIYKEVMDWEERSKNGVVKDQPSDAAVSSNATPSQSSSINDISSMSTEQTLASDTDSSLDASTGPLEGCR
T14 sequence (Q13873 27-1038): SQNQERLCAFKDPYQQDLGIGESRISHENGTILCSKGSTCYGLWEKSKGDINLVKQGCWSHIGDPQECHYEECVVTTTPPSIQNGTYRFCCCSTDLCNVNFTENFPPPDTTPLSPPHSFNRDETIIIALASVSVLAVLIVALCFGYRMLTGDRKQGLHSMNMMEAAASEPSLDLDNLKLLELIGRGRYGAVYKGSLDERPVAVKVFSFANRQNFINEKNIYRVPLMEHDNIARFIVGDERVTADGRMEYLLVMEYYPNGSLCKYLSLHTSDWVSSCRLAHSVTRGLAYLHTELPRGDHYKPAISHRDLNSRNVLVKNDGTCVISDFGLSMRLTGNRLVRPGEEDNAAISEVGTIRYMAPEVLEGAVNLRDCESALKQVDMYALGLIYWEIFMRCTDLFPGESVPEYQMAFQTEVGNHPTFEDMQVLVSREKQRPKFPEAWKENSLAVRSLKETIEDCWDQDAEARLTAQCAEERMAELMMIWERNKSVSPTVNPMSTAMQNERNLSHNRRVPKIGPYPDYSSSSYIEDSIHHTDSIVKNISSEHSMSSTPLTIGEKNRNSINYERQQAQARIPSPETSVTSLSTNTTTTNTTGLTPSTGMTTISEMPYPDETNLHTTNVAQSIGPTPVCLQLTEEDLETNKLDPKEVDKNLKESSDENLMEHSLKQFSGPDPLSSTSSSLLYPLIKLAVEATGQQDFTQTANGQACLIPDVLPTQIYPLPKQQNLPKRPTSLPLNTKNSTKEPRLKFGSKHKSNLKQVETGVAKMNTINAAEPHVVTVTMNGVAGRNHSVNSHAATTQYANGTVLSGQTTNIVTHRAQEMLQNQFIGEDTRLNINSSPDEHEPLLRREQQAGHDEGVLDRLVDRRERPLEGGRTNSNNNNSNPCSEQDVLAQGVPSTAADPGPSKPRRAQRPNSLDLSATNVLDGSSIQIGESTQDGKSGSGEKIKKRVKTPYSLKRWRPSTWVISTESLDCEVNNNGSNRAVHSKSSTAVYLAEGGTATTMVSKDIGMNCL
T10 sequence (P49841 whole entry): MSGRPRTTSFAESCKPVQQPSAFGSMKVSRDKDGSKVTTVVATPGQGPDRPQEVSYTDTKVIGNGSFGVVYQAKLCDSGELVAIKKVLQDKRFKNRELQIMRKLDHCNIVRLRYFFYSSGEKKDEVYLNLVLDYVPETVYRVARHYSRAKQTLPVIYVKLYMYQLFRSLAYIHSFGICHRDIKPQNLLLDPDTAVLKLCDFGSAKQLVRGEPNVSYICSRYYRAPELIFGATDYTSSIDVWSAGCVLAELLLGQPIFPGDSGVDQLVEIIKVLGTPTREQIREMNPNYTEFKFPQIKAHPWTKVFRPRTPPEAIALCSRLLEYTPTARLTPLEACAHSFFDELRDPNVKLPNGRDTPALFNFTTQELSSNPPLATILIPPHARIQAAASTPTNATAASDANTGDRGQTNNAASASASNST
T20 sequence (O96013 whole entry): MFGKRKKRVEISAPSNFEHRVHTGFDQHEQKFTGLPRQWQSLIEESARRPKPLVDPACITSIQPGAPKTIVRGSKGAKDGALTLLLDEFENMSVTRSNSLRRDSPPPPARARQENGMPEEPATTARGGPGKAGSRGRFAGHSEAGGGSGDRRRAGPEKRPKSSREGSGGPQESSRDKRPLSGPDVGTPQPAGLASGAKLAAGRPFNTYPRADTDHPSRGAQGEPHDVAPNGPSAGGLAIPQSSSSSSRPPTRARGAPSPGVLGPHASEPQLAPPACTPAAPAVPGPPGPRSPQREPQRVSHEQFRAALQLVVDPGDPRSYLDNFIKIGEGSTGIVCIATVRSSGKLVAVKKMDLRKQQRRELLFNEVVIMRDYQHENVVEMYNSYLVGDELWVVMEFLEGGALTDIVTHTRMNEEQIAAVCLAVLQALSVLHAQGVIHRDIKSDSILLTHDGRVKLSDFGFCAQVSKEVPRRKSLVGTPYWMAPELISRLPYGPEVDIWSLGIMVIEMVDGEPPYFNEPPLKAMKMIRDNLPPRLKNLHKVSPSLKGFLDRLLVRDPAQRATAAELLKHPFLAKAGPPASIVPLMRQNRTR
T22 sequence (Q96GD4 whole entry): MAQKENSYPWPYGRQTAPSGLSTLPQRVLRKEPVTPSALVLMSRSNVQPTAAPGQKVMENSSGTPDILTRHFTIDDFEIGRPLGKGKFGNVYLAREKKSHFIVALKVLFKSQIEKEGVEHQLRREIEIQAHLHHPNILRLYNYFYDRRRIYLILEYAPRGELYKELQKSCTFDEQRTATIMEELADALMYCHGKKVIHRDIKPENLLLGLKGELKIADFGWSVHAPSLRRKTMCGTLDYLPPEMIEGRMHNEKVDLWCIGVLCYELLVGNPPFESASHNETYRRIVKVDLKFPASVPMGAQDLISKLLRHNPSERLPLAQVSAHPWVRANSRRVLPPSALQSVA
T5 sequence (Q8TF76 whole entry): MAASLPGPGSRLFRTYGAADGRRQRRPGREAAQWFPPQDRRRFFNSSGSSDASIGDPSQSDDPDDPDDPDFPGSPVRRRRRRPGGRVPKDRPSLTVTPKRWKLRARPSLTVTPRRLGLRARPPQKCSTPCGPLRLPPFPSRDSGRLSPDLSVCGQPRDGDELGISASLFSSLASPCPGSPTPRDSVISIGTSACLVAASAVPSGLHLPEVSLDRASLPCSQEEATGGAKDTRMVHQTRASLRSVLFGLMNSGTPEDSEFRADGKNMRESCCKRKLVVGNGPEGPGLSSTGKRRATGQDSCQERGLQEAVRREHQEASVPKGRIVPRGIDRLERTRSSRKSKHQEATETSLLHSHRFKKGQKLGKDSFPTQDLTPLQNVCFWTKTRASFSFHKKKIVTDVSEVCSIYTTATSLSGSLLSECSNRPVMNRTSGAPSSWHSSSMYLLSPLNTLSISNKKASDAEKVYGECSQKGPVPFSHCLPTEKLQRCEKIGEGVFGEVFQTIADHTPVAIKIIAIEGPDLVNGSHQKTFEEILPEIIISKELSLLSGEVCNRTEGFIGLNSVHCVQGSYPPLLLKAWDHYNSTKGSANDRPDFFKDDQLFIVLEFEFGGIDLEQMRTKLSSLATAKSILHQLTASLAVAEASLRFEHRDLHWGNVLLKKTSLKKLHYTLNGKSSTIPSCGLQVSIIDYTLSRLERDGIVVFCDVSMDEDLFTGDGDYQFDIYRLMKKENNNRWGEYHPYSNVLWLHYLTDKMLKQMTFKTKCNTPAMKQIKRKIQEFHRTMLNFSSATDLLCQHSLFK
T17 sequence (P49137 whole entry): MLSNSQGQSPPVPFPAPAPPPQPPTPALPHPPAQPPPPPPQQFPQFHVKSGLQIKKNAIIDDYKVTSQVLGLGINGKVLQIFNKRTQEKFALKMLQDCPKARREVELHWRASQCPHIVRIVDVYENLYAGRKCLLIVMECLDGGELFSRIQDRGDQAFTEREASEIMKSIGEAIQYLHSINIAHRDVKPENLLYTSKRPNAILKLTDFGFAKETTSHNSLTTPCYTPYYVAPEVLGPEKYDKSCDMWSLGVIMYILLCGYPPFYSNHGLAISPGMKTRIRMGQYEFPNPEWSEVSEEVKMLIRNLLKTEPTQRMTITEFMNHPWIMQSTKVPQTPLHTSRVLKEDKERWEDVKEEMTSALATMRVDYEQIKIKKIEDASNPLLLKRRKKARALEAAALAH

stability in mouse liver microsomes (Microsomal stability): acceptable stability
ΔTm at 10 µM (BRAF): -0.1 °C
ΔTm at 10 µM (EPHA5): 0.5 °C
ΔTm at 10 µM (FGFR2): 0.3 °C
ΔTm at 10 µM (PCTK1): -0.2 °C
ΔTm at 10 µM (GSG2): 0.1 °C
ΔTm at 10 µM (STK38L): -0.2 °C
ΔTm at 10 µM (MELK): 0.4 °C
ΔTm at 10 µM (MAPK9): 0 °C
ΔTm at 10 µM (BRPF1): 0.9 °C
ΔTm at 10 µM (GSK3B): 0.4 °C
ΔTm at 10 µM (TLK1): 0 °C
ΔTm at 10 µM (EPHA2): 0.3 °C
ΔTm at 10 µM (STK17): -0.7 °C
ΔTm at 10 µM (BMPR2): -0.4 °C
ΔTm at 10 µM (PIM1): -0.6 °C
ΔTm at 10 µM (FGFR3): 0.1 °C
ΔTm at 10 µM (MAPKAPK2): -0.3 °C
ΔTm (MAP2K4): > 2 °C
ΔTm at 10 µM (MAP2K4): 3 °C
ΔTm at 10 µM (FGFR1): 0.4 °C
ΔTm at 10 µM (PAK4): 0.8 °C
ΔTm at 10 µM (BRD4): -1 °C
ΔTm at 10 µM (AURKB): 0 °C
ΔTm at 10 µM (MST4): -1.1 °C
ΔTm at 10 µM (ABL1): 0.6 °C
ΔTm at 10 µM (DAPK3): 0.9 °C
ΔTm at 10 µM (CDK2): -0.2 °C
ΔTm at 10 µM (MAPK10): 0.1 °C
SMILES: CCc1cnc(Nc2nc(Cl)ccc2[N+](=O)[O-])nc1N1CCN(Cc2nc3cc(C(F)(F)F)ccc3[nH]2)CC1 [Compound 2]

— publication PMC8534050, “Discovery of a Potent and Highly Isoform-Selective Inhibitor of the Neglected Ribosomal Protein S6 Kinase Beta 2 (S6K2)” (Cancers, 2021)
